Measured values published in paper PMC9315260, “Diarylamine-Guided Carboxamide Derivatives: Synthesis, Biological Evaluation, and Potential Mechanism of Action” (Frontiers in Chemistry, 2022).
Entries after “also recorded” stand apart in the source; their conditions may differ.

Experiments:
[1] = system: SGC-7901 (human gastric cancer cell line); assay: MTT in vitro cytotoxicity assay, SGC-7901; format: cell-based; details: for IC50: mean ± S.D.; for inhibition at 100 µM: SGC-7901, at 100 µM, read-out: Cell growth inhibition (%) SGC-7901
Procedure: (§1) The lead molecules A2 and all newly prepared diarylamine derivatives B1-13 and C1-11 were evaluated for their in vitro cytotoxic effects against SGC-7901, A875, HepG2 and MARC145 cell lines by the classical MTT [3-(4,5-dimethylthiazol-2-yl)-2,5-diphenyl tetrazolium bromide] assay ([Alley et al., 1988]; [Ke et al., 2012]; [Shi et al., 2012]; [Yu et al., 2015]; [Ke et al., 2019]; [Xu et al., 2019]; [Huang et al., 2021]) using 5-FU (5-Fluorouracil) as a control.
(§2) The cytotoxicity of target compounds was determined with MTT assay ([Alley et al., 1988]; [Ke et al., 2012]; [Shi et al., 2012]; [Yu et al., 2015]; [Ke et al., 2019]; [Xu et al., 2019]; [Huang et al., 2021]). SGC-7901, A875, HepG2 and MARC145 cell lines were obtained from Hubei Biopesticide Engineering Research Centre. All data of the experiment were analyzed with SPSS software, and all assay were performed in triplicate on three independent experiments, and measurement data were expressed as the mean ± S.D.
(§3) The in vitro cytotoxicity of the synthesized compounds against different cell lines (SGC-7901, A875, HepG2 and MARC145) was measured with MTT assay. All the data of the experiment were analyzed with SPSS software, and the 50% inhibitory concentrations (IC50) of each compound for the different cell lines were determined. A control was run for each test, and all assays were performed in triplicate on three independent experiments, and measurement data were expressed as the mean ± S.D.

[2] = system: A875 (human melanoma cell line); assay: MTT in vitro cytotoxicity assay, A875; format: cell-based; details: for IC50: mean ± S.D.; for inhibition at 100 µM: A875, at 100 µM, read-out: Cell growth inhibition (%) A875
Procedure: as §1, §2, §3

[3] = system: HepG2 (human hepatocellular liver carcinoma cell line); assay: MTT in vitro cytotoxicity assay, HepG2; format: cell-based; details: for IC50: mean ± S.D.; for inhibition at 100 µM: HepG2, at 100 µM, read-out: Cell growth inhibition (%) HepG2
Procedure: as §1, §2, §3

[4] = MTT in vitro cytotoxicity assay, MARC145; format: cell-based, African green monkey; details: African green monkey, MARC145 cells (kidney cell line, subclone of MA-104), MTT, mean ± S.D.
Procedure: as §1, §2, §3

[5] = system: MARC145 (subclone of African green monkey kidney cell line MA-104); assay: MTT in vitro cytotoxicity assay, MARC145; format: cell-based; details: Chlorocebus sabaeus, MARC145; at 100 µM; read-out: Cell growth inhibition (%) MARC145
Procedure: as §1, §2, §3

[6] = system: SGC-7901, A875, HepG2 and MARC145 cell lines; assay: MTT in vitro cytotoxicity assay, statements over the whole cell panel; format: cell-based; details: for cytotoxic effect / inhibition activity in words: IC50-based judgement, compared with 5-FU; for inhibition activity in preliminary screening, in words: at 100 µM, inhibition rate higher than control 5-FU
Procedure: as §1, §2, §3

[7] = system: A875 cells; assay: LDH release (cellular necrosis); format: cell-based, human; details: 24 h after treatment
Procedure: From the preliminary analysis of apoptosis, the results encourage us to further investigate the type of cell death induced by the potential compounds (C6 and C11). As we know, the release of LDH is a typical characteristic feature of necrotic cell death, and so which was detected.
A875 cells grown in 96-well plates were treated with serial dilutions of each tested compound for 24 h. The culture media were collected, and the concentrations of LDH were determined based on our previous research ([Huang et al., 2021]).
A875 cells grown in 96-well plates were treated with serial dilutions of each tested compound for 24 h. The culture media were collected, and the concentrations of LDH were determined with an LDH assay kit according to the manufacturer’s instructions (Abcam).

[8] = system: NCI-H460; design: method as in Peng et al., 2017; details: ref Peng et al., 2017; cited from earlier work
[9] = system: A549; design: method as in Peng et al., 2017; details: ref Peng et al., 2017; cited from earlier work
[10] = system: NCI-H1975; design: method as in Peng et al., 2017; details: ref Peng et al., 2017; cited from earlier work
[11] = system: HL-7702; design: method as in Peng et al., 2017; details: ref Peng et al., 2017; cited from earlier work
[12] = system: MDCK; design: method as in Peng et al., 2017; details: ref Peng et al., 2017; cited from earlier work
[13] = system: lung cancer cell lines (NCI-H460, A549, and NCI-H1975); design: method as in Peng et al., 2017; details: ref Peng et al., 2017, read-out: IC50 values against the tested lung cancer cell lines; cited from earlier work

Row | SMILES | IC50 ([1]; SGC-7901, Table 1, MTT) | IC50 ([1]; SGC-7901, Table 3, MTT) | inhibition at 100 µM [1] | IC50 ([2]; A875, Table 1, MTT) | IC50 ([2]; A875, Table 3, MTT) | inhibition at 100 µM [2] | IC50 ([3]; HepG2, Table 1, MTT) | IC50 ([3]; HepG2, Table 3, MTT) | inhibition at 100 µM [3] | IC50 ([4]; Table 1) | IC50 ([4]; Table 3) | inhibition at 100 µM [5] | dose-response analysis of cell growth inhibition, in words ([6]; SGC-7901, A875, HepG2, MARC145) | IC50 [8] | IC50 [9] | IC50 [10] | IC50 [11] | IC50 [12] | cytotoxic effect / inhibition activity in words [6] | inhibition activity in preliminary screening, in words [6] | further results
1 | O=c1[nH]cc(F)c(=O)[nH]1 [5-FU, 5-Fluorouracil, reference compound] | 71.1 ± 2.65 µM | 87.7 ± 11 µM | 56.8 ± 2.2% | 82.4 ± 23.7 µM | 101 ± 7.14 µM | 53.2 ± 4.5% | 88.1 ± 17.2 µM | 91.8 ± 16.1 µM | 59 ± 3.5% | 153 ± 11 µM | 99 ± 16.4 µM | 60.3 ± 3.9% | significant concentration dependence |  |  |  |  |  |  |  | release of LDH, in words [7]: significantly increased
2 | Cc1cc(Cl)cc(C(N)=O)c1NC(=O)c1ccccc1Nc1cccc(C(F)(F)F)c1 [A1] | 52.8 ± 6.59 µM |  |  | 56.9 ± 7.54 µM |  |  | > 89 µM |  |  | > 89 µM |  |  |  | > 80 µM | > 80 µM | > 80 µM | > 80 µM | > 80 µM |  |  | IC50 [13]: > 80 µM
3 | CNC(=O)c1cc(Cl)cc(C)c1NC(=O)c1ccccc1Nc1cccc(C(F)(F)F)c1 [A2] | 8.5 ± 2.26 µM |  |  | 7.59 ± 1.82 µM |  |  | 12.4 ± 0.39 µM |  |  | 8.13 ± 2.49 µM |  |  |  | 14.8 ± 0.49 µM | 14.7 ± 1.86 µM | 23.4 ± 2.21 µM | 46.4 ± 3.87 µM | 46 ± 7.77 µM |  |  | IC50 ([6]; SGC-7901, A875, HepG2, MARC145, read-out: IC50 values, span over the tested cell lines): 7.59 to 12.4 µM
4 | O=C(Nc1ccc(C(F)(F)F)cc1)c1ccccc1Nc1cccc(C(F)(F)F)c1 [C7, N-(4-(Trifluoromethyl)phenyl)-2-((3-(trifluoromethyl)phenyl)amino)benzamide] |  | 8.91 ± 2.15 µM | 87 ± 2.4% |  | 13 ± 3.39 µM | 92.6 ± 4.9% |  | 10.4 ± 2.17 µM | 88.5 ± 3.3% |  | 11.9 ± 1.37 µM | 76.1 ± 3.5% | significant concentration dependence |  |  |  |  |  | good cytotoxic effect; also recorded: higher inhibition activities compared to the control 5-FU | good inhibition activity | melting point: 102 to 103 °C
5 | O=C(Nc1ccnc(Cl)c1)c1ccccc1Nc1cccc(C(F)(F)F)c1 [C10, N-(2-Chloropyridin-4-yl)-2-((3-(trifluoromethyl)phenyl)amino)benzamide] |  | 8.31 ± 2.94 µM | 86.8 ± 3.2% |  | 26.3 ± 7.39 µM | 90.1 ± 5.4% |  | 21.9 ± 1.64 µM | 87.2 ± 4.1% |  | 22.7 ± 5.93 µM | 80.3 ± 4.6% |  |  |  |  |  |  | higher inhibition activities compared to the control 5-FU | good inhibition activity | melting point: 97 to 98 °C
